Experimental data: patent US9751887B2, “Imidazo[1,2-b]pyridazine derivatives as kinase inhibitors” (Daiichi Sankyo Company, Limited, priority 2012, dated 2017)
Structures can show the parent of a compound that is named as a salt.

How the values were obtained:
[1] = target: T1, ROS1 (Homo sapiens, UniProt P08922); experiment: ROS1 autophosphorylation inhibitory activity evaluation (ADP-Glo); format: biochemical; settings: 200 nM inactive ROS1, ATP 1 mM, 25° C. 1.5 hours, ADP generated, four separate measurements
T1 construct: purchased Carna Biosciences 08-163
T1 sequence (P08922 28-2347): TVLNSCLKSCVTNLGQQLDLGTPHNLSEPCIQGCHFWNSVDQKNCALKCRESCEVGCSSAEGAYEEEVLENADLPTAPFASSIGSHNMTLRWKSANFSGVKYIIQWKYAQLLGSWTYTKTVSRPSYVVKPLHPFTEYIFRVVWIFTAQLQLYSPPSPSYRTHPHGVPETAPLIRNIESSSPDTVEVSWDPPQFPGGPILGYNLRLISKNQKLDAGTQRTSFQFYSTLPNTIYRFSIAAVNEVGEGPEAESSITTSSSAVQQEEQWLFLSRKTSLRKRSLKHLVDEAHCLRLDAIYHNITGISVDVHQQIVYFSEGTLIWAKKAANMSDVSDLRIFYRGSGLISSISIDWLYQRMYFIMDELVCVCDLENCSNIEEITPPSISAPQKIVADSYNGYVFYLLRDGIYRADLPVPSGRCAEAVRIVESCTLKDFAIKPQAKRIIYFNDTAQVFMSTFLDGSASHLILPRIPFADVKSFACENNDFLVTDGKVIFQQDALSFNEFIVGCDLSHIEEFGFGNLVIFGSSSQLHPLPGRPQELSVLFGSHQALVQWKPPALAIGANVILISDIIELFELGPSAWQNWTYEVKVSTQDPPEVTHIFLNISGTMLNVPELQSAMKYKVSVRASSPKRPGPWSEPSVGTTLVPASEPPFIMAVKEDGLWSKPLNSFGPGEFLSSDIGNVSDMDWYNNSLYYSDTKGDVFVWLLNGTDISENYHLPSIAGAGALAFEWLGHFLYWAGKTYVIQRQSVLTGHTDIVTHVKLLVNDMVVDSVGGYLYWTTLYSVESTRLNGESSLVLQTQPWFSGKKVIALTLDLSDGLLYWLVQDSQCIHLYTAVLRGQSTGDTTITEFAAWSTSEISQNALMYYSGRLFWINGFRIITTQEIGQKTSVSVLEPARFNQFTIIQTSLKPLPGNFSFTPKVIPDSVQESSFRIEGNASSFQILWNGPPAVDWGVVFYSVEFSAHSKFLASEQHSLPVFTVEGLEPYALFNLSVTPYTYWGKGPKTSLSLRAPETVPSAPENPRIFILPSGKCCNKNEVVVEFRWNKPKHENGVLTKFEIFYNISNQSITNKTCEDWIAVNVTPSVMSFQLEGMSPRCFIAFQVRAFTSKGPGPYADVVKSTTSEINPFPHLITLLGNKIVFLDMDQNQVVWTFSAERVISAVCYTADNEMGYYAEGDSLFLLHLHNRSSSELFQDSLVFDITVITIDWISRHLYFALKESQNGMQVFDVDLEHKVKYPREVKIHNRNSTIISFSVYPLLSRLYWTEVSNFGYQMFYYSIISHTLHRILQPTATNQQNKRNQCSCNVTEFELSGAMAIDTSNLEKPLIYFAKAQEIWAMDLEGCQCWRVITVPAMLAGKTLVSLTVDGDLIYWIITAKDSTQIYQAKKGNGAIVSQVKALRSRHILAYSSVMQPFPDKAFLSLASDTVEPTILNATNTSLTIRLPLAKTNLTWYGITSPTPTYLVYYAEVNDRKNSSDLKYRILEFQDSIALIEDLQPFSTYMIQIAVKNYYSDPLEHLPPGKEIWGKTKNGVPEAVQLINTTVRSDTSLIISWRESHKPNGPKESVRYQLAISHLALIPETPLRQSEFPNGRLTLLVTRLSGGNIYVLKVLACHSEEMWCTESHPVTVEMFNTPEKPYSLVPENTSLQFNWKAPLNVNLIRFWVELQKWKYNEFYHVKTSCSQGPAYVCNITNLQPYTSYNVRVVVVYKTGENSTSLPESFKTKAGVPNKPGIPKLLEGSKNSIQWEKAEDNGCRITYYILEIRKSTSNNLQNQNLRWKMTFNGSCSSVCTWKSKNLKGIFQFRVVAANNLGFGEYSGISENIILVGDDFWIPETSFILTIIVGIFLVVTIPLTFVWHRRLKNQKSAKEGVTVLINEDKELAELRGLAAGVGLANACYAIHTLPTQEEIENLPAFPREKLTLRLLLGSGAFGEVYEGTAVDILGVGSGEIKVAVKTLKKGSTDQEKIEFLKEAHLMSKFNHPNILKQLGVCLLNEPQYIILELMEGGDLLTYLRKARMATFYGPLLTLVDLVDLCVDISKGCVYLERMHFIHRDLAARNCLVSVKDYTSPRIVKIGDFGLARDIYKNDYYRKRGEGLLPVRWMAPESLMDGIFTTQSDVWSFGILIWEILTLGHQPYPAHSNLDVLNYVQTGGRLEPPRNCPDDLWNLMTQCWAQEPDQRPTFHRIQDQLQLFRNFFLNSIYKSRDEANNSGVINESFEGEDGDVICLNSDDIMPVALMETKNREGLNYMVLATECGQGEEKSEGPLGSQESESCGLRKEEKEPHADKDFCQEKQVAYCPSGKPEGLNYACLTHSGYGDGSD
Procedure, shortened: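 ROS1 autophosphorylation ran with 1 mM final ATP in 50 mM HEPES pH 7.5, 10 mM MgCl2, 0.01% Brij-58, 2.5 mM DTT for 1.5 h at 25° C. ADP generated was read by ADP-Glo luminescence. IC50 values were obtained by curve fitting.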

[2] = target: T1, ROS1; experiment: ROS1 kinase inhibitory activity evaluation (mobility shift, EZ Reader II); format: biochemical; settings: ROS1 25 pg/μL, FL-Peptide 22 substrate, three separate measurements
Description: Next, a substrate reaction solution was prepared. […] Then, the reaction stop solution was added thereto at a concentration of 40 μL/well. Substrate phosphorylation intensity was measured using EZ Reader II (Caliper Life Sciences).

[3] = target: T2, NTRK1 (Homo sapiens, UniProt P04629); experiment: NTRK kinase enzyme inhibitory activity evaluation, NTRK1; format: biochemical; settings: FL-Peptide 27 substrate, ATP Km=33 μM, three separate measurements
T2 construct: purchased Carna Biosciences 08-186
T2 sequence (P04629 33-796): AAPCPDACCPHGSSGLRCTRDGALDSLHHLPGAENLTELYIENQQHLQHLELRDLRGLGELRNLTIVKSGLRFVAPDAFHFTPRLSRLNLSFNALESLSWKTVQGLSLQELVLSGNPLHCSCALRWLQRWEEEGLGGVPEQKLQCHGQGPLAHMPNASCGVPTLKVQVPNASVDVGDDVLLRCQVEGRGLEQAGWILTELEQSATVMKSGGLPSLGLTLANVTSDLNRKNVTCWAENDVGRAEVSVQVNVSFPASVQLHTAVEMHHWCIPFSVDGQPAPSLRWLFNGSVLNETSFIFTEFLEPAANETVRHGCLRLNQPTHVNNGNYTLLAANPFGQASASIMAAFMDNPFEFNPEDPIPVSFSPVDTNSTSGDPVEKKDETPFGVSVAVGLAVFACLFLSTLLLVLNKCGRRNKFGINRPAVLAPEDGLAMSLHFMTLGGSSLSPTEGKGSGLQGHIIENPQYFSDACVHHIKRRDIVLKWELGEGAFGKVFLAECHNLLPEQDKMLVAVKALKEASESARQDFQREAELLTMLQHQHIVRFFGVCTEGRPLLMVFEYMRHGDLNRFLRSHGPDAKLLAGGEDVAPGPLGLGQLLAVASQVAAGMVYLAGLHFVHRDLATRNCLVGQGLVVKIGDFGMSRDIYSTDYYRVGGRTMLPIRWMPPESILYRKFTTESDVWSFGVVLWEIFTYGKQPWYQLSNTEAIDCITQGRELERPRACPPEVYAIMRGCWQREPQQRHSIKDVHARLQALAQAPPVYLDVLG
Description: (§1) NTRK1, NTRK2, and NTRK3 kinase solutions were each prepared. […]; Next, a substrate reaction solution was prepared.
(§2) Subsequently, a reaction stop solution was prepared. The composition is as follows: 100 mM HEPES (pH 7.4), 0.015% Brij-35, 40 mM EDTA, and 0.1% Coating Reagent 3 (Caliper Life Sciences #760050).
(§3) The NTRK1, NTRK2, and NTRK3 kinase solutions were each added at a concentration of 19 μL/well to a 96-well plate. Each compound for evaluation dissolved in DMSO to achieve each final concentration was added to the plate, mixed using a plate mixer, and then preincubated at room temperature for 20 minutes. […] Then, the reaction stop solution was added thereto at a concentration of 40 μL/well. Substrate phosphorylation intensity was measured using EZ Reader II (Caliper Life Sciences). IC50 values were calculated by curve fitting using Microsoft Excel 2010 on the basis of data obtained from three separate measurements.

[4] = target: T3, NTRK3 (Homo sapiens, UniProt Q16288); experiment: NTRK kinase enzyme inhibitory activity evaluation, NTRK3; format: biochemical; settings: FL-Peptide 27 substrate, ATP Km=32 μM, three separate measurements
T3 construct: purchased Carna Biosciences 08-197
T3 sequence (Q16288 32-839): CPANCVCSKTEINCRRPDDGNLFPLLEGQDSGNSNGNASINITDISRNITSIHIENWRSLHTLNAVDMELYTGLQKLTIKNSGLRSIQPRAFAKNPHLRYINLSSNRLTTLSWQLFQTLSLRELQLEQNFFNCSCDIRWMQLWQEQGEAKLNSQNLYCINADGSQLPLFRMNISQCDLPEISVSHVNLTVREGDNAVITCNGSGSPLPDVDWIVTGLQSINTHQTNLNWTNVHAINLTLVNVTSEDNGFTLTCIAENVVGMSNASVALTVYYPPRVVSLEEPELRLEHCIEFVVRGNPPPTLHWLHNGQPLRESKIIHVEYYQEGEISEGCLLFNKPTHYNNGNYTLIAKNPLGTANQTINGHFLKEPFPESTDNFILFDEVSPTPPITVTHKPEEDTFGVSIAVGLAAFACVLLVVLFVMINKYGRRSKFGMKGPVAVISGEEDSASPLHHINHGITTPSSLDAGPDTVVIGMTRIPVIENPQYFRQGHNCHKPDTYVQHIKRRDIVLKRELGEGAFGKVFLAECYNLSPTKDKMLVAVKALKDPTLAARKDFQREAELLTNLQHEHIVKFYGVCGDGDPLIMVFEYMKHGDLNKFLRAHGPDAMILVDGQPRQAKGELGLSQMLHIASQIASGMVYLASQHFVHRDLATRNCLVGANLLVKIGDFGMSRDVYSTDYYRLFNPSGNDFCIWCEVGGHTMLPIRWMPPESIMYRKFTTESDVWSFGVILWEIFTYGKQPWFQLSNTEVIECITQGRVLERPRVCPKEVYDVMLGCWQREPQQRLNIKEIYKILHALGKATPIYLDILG
Description: as §1, §2, §3

[5] = target: T4, NTRK2 (Homo sapiens, UniProt Q16620); experiment: NTRK kinase enzyme inhibitory activity evaluation, NTRK2; format: biochemical; settings: FL-Peptide 27 substrate, ATP Km=63 μM, three separate measurements
T4 construct: purchased Carna Biosciences 08-187
T4 sequence (Q16620 32-822): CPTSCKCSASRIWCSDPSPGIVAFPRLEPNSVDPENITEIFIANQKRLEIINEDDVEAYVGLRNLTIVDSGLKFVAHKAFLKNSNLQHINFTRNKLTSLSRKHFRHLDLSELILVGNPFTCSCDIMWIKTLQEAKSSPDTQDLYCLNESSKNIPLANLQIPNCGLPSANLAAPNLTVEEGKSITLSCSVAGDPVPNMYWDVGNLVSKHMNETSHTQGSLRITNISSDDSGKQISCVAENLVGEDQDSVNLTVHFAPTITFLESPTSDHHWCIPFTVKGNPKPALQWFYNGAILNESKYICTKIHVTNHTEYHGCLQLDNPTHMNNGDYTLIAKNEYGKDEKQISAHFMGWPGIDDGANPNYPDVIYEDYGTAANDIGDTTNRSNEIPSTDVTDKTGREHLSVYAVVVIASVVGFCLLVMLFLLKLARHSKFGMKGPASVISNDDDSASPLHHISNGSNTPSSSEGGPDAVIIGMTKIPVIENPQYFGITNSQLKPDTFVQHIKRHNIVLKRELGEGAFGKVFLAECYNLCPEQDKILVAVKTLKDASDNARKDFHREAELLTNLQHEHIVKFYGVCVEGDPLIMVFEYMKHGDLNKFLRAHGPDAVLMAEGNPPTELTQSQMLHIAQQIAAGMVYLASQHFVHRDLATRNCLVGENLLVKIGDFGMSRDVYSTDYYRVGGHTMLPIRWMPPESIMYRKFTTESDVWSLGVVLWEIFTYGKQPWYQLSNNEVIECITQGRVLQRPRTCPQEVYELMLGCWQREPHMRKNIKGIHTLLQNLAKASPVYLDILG
Description: as §1, §2, §3

[6] = system: HCC78 cells having ROS1 fusion gene; experiment: HCC78 cell growth assay (CellTiter-Glo); format: cell-based; settings: Homo sapiens, HCC78, 72 h, 72 hours culture, 2% FBS medium, luminescence, four separate measurements; read-out: growth inhibitory effect on HCC78 cells having ROS1 fusion gene IC50

| IC50 [1] | IC50 [2] | IC50 [3] | IC50 [4] | IC50 [5] | IC50 [6] | SMILES |
| --- | --- | --- | --- | --- | --- | --- |
| < 20 nM | < 1 nM | < 5 nM | < 5 nM | < 10 nM | < 20 nM | C[C@@H](Nc1ccc2ncc(-c3ccc(OC[C@@H]4CCN4)cc3)n2n1)c1cccc(F)c1 [Example 30, 3-[4-[[(2S)-Azetidin-2-yl]methoxy]phenyl]-N-[(1R)-1-(3-fluorophenyl)ethyl]imidazo[1,2-b]pyridazin-6-amine] |
| < 20 nM | < 1 nM | < 5 nM | < 5 nM | < 10 nM | < 20 nM | CN(Cc1cccc(F)c1)c1ccc2ncc(-c3ccc(N4C[C@@H](N)CC4=O)cc3)n2n1 [Example 81, (4S)-4-Amino-1-[4-[6-[(3-fluorophenyl)methyl-methylamino]imidazo[1,2-b]pyridazin-3-yl]phenyl]pyrrolidin-2-one] |
|  | < 1 nM | < 5 nM | < 5 nM | < 10 nM | < 20 nM | C[C@@H](Oc1ccc2ncc(-c3ccc(N4C[C@@H](N)CC4=O)cc3)n2n1)c1cccc(F)c1 [Example 79, (4S)-4-Amino-1-[4-[6-[(1R)-1-(3-fluorophenyl)ethoxy]imidazo[1,2-b]pyridazin-3-yl]phenyl]pyrrolidin-2-one] |
|  |  | < 5 nM | < 5 nM | < 10 nM | < 20 nM | C[C@@H](N)COc1ccc(-c2cnc3ccc(N[C@H](C)c4cccc(F)c4)nn23)cc1 [Example 21, 3-[4-[(2R)-2-Aminopropoxy]phenyl]-N-[(1R)-1-(3-fluorophenyl)ethyl]imidazo[1,2-b]pyridazin-6-amine] |
|  |  | < 5 nM | < 5 nM | < 10 nM | < 20 nM | C[C@H](N)COc1ccc(-c2cnc3ccc(N[C@H](C)c4cccc(F)c4)nn23)cc1 [Example 41, 3-[4-[(2S)-2-Aminopropoxy]phenyl]-N-[(1R)-1-(3-fluorophenyl)ethyl]imidazo[1,2-b]pyridazin-6-amine] |
| < 20 nM | < 1 nM |  |  |  | < 20 nM | C[C@@H](Nc1ccc2ncc(-c3ccc(OC[C@@H](N)CO)cc3)n2n1)c1cccc(F)c1 [Example 56, (2S)-2-Amino-3-[4-[6-[[(1R)-1-(3-fluorophenyl)ethyl]amino]imidazo[1,2-b]pyridazin-3-yl]phenoxy]propan-1-ol] |
| < 20 nM | < 1 nM |  |  |  | 20 to 100 nM | CN(Cc1cccc(F)c1)c1ccc2ncc(-c3ccc(N4C[C@@H](N)CC4=O)nc3)n2n1 [Example 128, (4S)-4-Amino-1-[5-[6-[(3-fluorophenyl)methyl-methylamino]imidazo[1,2-b]pyridazin-3-yl]-2-pyridyl]pyrrolidin-2-one] |
| < 20 nM | < 1 nM |  |  |  | 20 to 100 nM | C[C@@H](Nc1ccc2ncc(-c3ccc(OCCCN)cc3)n2n1)c1cccc(F)c1 [Example 28, 3-[4-(3-Aminopropoxy)phenyl]-N-[(1R)-1-(3-fluorophenyl)ethyl]imidazo[1,2-b]pyridazin-6-amine] |
| 20 to 100 nM | 10 to 60 nM |  |  |  | 100 to 600 nM | CC(Oc1ccc2ncc(-c3ccc(N4C[C@@H](N)CC4=O)cc3)n2n1)c1nccs1 (stereo partly drawn) [Example 105, (4S)-4-Amino-1-[4-[6-(1-thiazol-2-ylethoxy)imidazo[1,2-b]pyridazin-3-yl]phenyl]pyrrolidin-2-one] |
| 100 to 150 nM | 1 to 10 nM |  |  |  | 100 to 600 nM | Fc1cccc(COc2ccc3ncc(-c4ccc(O[C@@H]5CCNC5)cc4)n3n2)c1 [Example 13, 6-[(3-Fluorophenyl)methoxy]-3-[4-[(3R)-pyrrolidin-3-yl]oxyphenyl]imidazo[1,2-b]pyridazine] |
| 20 to 100 nM | < 1 nM |  |  |  | 20 to 100 nM | C[C@@H](Nc1ccc2ncc(-c3cc(F)cc(OC[C@@H]4CCN4)c3)n2n1)c1cccc(F)c1 [Example 62, 3-[3-[[(2S)-Azetidin-2-yl]methoxy]-5-fluoro-phenyl]-N-[(1R)-1-(3-fluorophenyl)ethyl]imidazo[1,2-b]pyridazin-6-amine] |
| 100 to 150 nM | 10 to 60 nM |  |  |  | 20 to 100 nM | CN(Cc1cncc(Cl)c1)c1ccc2ncc(-c3ccc(N4CC(C)(N)CC4=O)cc3)n2n1 (stereo not shown) [Example 123, 4-Amino-1-[4-[6-[(5-chloro-3-pyridyl)methyl-methylamino]imidazo[1,2-b]pyridazin-3-yl]phenyl]-4-methylpyrrolidin-2-one] |
| < 20 nM | 1 to 10 nM |  |  |  | 20 to 100 nM | CNCCCOc1ccc(-c2cnc3ccc(N[C@H](C)c4cccc(F)c4)nn23)cc1 [Example 31] |
| < 20 nM | < 1 nM |  |  |  | < 20 nM | C[C@@H](Nc1ccc2ncc(-c3ccc(OC[C@@H](N)[C@@H](C)O)cc3)n2n1)c1cccc(F)c1 [Example 54, (2R,3R)-3-Amino-4-[4-[6-[[(1R)-1-(3-fluorophenyl)ethyl]amino]imidazo[1,2-b]pyridazin-3-yl]phenoxy]butan-2-ol] |
| 100 to 150 nM | 1 to 10 nM |  |  |  | 100 to 600 nM | C[C@@H](Nc1ccc2ncc(-c3ccc(F)c(OC[C@@H]4CCN4)c3)n2n1)c1cccc(F)c1 [Example 64, 3-[3-[[(2S)-Azetidin-2-yl]methoxy]-4-fluoro-phenyl]-N-[(1R)-1-(3-fluorophenyl)ethyl]imidazo[1,2-b]pyridazin-6-amine] |
| < 20 nM | 1 to 10 nM |  |  |  | 20 to 100 nM | C[C@@H](Nc1ccc2ncc(-c3cccc(N4C[C@@H](N)CC4=O)c3)n2n1)c1cccc(F)c1 [Example 91, (4S)-4-Amino-1-[3-[6-[[(1R)-1-(3-fluorophenyl)ethyl]amino]imidazo[1,2-b]pyridazin-3-yl]phenyl]pyrrolidin-2-one] |
| 20 to 100 nM | 1 to 10 nM |  |  |  | 20 to 100 nM | CN(Cc1cncc(F)c1Cl)c1ccc2ncc(-c3ccc(N4C[C@@H](N)CC4=O)cc3)n2n1 [Example 126, (4S)-4-Amino-1-[4-[6-[(4-chloro-5-fluoro-3-pyridyl)methyl-methylamino]imidazo[1,2-b]pyridazin-3-yl]phenyl]pyrrolidin-2-one] |
| 20 to 100 nM | 1 to 10 nM |  |  |  | 20 to 100 nM | CN1CCC[C@H]1COc1cccc(-c2cnc3ccc(NCc4ccccc4)nn23)c1 [Example 8, N-Benzyl-3-[3-[[(2S)-1-methylpyrrolidin-2-yl]methoxy]phenyl]imidazo[1,2-b]pyridazin-6-amine] |
| < 20 nM | 1 to 10 nM |  |  |  | 20 to 100 nM | CC(Oc1ccc2ncc(-c3ccc(N4C[C@@H](N)CC4=O)cc3)n2n1)c1cncc(Cl)c1 (stereo partly shown) [Example 112] |
| < 20 nM | < 1 nM |  |  |  | < 20 nM | C[C@@H](Nc1ccc2ncc(-c3ccc(N4C[C@@H](N)CC4=O)c(F)c3)n2n1)c1cccc(F)c1 [Example 92, (4S)-4-Amino-1-[2-fluoro-4-[6-[[(1R)-1-(3-fluorophenyl)ethyl]amino]imidazo[1,2-b]pyridazin-3-yl]phenyl]pyrrolidin-2-one] |
| < 20 nM | 1 to 10 nM |  |  |  | 20 to 100 nM | CN(Cc1cccc(F)c1)c1ccc2ncc(-c3ccc(N4C[C@@H](N)CC4=O)c(C#N)c3)n2n1 [Example 131, 2-[(4S)-4-Amino-2-oxopyrrolidin-1-yl]-5-[6-[(3-fluorophenyl)methyl-methylamino]imidazo[1,2-b]pyridazin-3-yl]benzonitrile] |
| 20 to 100 nM | < 1 nM |  |  |  | 20 to 100 nM | C[C@@H](Oc1ccc2ncc(-c3ccc(OC[C@@H]4CCN4)cc3)n2n1)c1cccc(F)c1 [Example 18, 3-[4-[[(2S)-Azetidin-2-yl]methoxy]phenyl]-6-[(1R)-1-(3-fluorophenyl)ethoxy]imidazo[1,2-b]pyridazine hydrochloride] |
| < 20 nM | < 1 nM |  |  |  | 20 to 100 nM | C[C@@H](Nc1ccc2ncc(-c3ccc(OCCCN(C)C)cc3)n2n1)c1cccc(F)c1 [Example 70, 3-[4-[3-(Dimethylamino)propoxy]phenyl]-N-[(1R)-1-(3-fluorophenyl)ethyl]imidazo[1,2-b]pyridazin-6-amine] |

| SMILES | IC50 [1] | IC50 [2] | IC50 [3] | IC50 [4] | IC50 [5] | IC50 [6] |
| --- | --- | --- | --- | --- | --- | --- |
| CC[C@H](N)COc1ccc(-c2cnc3ccc(N[C@H](C)c4cccc(F)c4)nn23)cc1 [Example 49, 3-[4-[(2S)-2-Aminobutoxy]phenyl]-N-[(1R)-1-(3-fluorophenyl)ethyl]imidazo[1,2-b]pyridazin-6-amine] | < 20 nM | < 1 nM |  |  |  | < 20 nM |
